Legend:
RXRα/PPARγ interaction = target: T1, RXRα/PPARγ interaction (Homo sapiens, UniProt P37231); assay: Immunoprecipitation of PPARγ followed by Western blot for RXRα in HUVEC; type: cell-based; conditions: pretreated HUVEC
T1 construct: endogenous in cells; host or cells: HUVEC
T1 sequence (P37231 29-505 limits assumed): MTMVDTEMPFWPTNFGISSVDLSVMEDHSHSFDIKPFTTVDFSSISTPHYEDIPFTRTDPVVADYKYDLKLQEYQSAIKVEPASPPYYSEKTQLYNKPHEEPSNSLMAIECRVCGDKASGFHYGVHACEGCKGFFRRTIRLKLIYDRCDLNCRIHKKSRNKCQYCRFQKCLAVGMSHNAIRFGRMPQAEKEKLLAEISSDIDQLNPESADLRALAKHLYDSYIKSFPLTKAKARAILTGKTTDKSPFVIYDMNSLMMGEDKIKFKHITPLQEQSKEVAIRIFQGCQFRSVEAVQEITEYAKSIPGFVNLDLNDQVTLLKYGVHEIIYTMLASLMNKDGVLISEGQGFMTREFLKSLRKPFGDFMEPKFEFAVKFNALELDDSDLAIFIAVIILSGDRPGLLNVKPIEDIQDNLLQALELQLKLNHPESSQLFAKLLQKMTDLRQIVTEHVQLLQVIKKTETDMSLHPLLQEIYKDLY
T1 sequence (P19793 1-462 partner): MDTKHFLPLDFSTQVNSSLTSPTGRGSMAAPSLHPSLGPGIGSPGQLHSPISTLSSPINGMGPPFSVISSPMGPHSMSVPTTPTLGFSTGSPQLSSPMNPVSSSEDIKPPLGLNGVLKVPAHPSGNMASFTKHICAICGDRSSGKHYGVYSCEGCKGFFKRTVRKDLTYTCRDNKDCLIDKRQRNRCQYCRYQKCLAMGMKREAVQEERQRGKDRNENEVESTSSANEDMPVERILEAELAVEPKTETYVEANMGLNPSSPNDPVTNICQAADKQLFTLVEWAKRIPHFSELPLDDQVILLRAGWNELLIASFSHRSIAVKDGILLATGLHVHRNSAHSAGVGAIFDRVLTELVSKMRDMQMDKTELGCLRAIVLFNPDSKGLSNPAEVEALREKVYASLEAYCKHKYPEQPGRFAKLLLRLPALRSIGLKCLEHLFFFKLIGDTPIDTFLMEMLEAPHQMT
Description: For the immunoprecipitation, the protein extracts were obtained in 50 mM Tris-HCl (pH 8), 150 mM NaCl, 1% Nonidet P-40 and protease (1 mM PMSF, 40 µg/mL aprotinin and 40 µg/mL leupeptin) and phosphatase inhibitors. Then the protein extracts (~200 µg) were incubated with 5 µg of an antibody against PPARγ. Immunocomplexes were precipitated using an anti-rabbit IgG beads (cat# 8800, eBioscience, San Diego, CA) and suspended in a sample buffer with 50 mM dithiotreitol (DTT). Western blot was performed with an antibody against RXRα and the membranes were incubated with the secondary HRP-conjugate Rabbit TrueBlot (eBioscience, San Diego, CA) as secondary antibody. Chemoluminescence signals were developed with ECL (GE Healthcare, Madrid, Spain).

MCP-1 = assay: Treatment of ob/ob mice: MCP-1 mRNA in WAT by real-time PCR; type: in vivo; conditions: oral, 30 mg/Kg/d, 4 days
Description: 6 animals were used in each group in independent experiments (n=6).
The total RNA was extracted from mouse WAT by homogenization. Reverse transcription was performed with 1000 ng of total RNA using the inverse transcription kit TaqMan (Applied Biosystems, Thermo Fisher Scientific, Waltham, MA) and converted to cDNA by standard methods. The cDNA was amplified with specific feeders for the mouse monocytic chemoattractant protein 1 (MCP-1 or CCL2, Mm00441242_m1) in a Real Time PCR 7900HT apparatus (Applied Biosystems, Thermo Fisher Scientific, Waltham, MA) using Universal Master Mix (Applied Biosystems, Thermo Fisher Scientific, Waltham, MA). All feeders were designed by Applied Biosystems. The relative quantification of the various transcriptions was determined by the 2^-ΔΔCt method using GAPDH (Applied Biosystems, Thermo Fisher Scientific, Waltham, MA) as endogenous and normalized control for the control group.

[1] = system: white adipose tissue (WAT); assay: Treatment of ob/ob mice: white adipose tissue weight, histology and F4/80 immunohistochemistry; type: in vivo; conditions: oral, 4 days
Source text: (§1) […]. […] […].
The samples of epididymal white adipose tissue (WAT) and liver were fixed in 4% paraformaldehyde, embedded in paraffin, sectioned with a microtome (Leica RM2245, Leica Biosystems, Wetzlar, Germany) and mounted in microscope slides Superfrost® plus (Thermo Fisher Scientific, Waltham, MA). Cross sections of WAT and liver were obtained. At least 10 slides were examined containing ≈ 4 cross sections of tissue (5 µm thickness) of each animal. Hematoxilin and eosin (H&E) staining was performed of the WAT and liver. Inflammatory infiltration in WAT was measured as previously described (Toyoda et al., 2008). After inactivation of the peroxidase (3% H2O2) and blocking with goat serum (Abcam, Cambridge, UK), cross sections of WAT were incubated overnight (4°C) with the following primary (mAb) monoclonal antibody: a rabbit anti-mouse F4/80 mAb (dilution 1:100, Abcam, Cambridge, UK). A specific marking was detected with a secondary goat HRP-conjugated anti-rabbit antibody (dilution 1:500, Dako, Copenhagen, Denmark). To confirm the specificity of the antibodies, control antibodies with the same isotope (Abcam, Cambridge, UK) or secondary antibody were used only as negative controls. […] Five fields of each WAT tissue section were photographed (Axio Observer A1, Carl Zeiss microscope, Thornwood, NY) digitalized and analyzed (Imaged software 1.48V, Bethesda, […]). Quantification was performed double blind with codes.

CXCL16 = assay: Flow cytometry of TNFα-induced CXCL16 expression in HUVEC; type: cell-based, human; conditions: 3 µM, TNFα 20 ng/mL 24 h
Description: The cells were collected from the flasks using accutase (StemPro® Accutase® Cell Dissociation Reagent, ThermoFischer Scientific, Waltham, MA).
Then they were washed and incubated for 1 h with a APC-conjugated mAb antibody against human VCAM-1 (100 µg/mL; clone STA, BioLegend, San Diego, CA), a FITC- conjugated mAb against human ICAM-1 (400 µg/mL; clone HA58, BioLegend, San Diego, CA), a PE-conjugated mAb against human CX3CL1 (1.25 µg/mL; clone 51637, R&D Systems, Minneapolis, MN) or with a APC-conjugated mAb antibody against human CXCL16 (clone 256213, R&D Systems, Abingdon, UK), all at a dilution of 1:25 in 3% BSA/PBS. The samples were analyzed using a BD FACSVerse Flow Cytometer (BD Biosciences, San Jose, CA).

[2] = Treatment of ob/ob mice: plasma metabolites (cholesterol, HDL-c, triglycerides, free fatty acids, ALT, AST); type: in vivo; set-up: blood levels of free fatty acids: unit not given here; conditions: oral, 4 days; for triglyceride levels in plasma: control 137 mg/dL
Description: as §1
Free fatty acids (FFA) in plasma, and the enzymes aspartate aminotransferase (AST) and alanine aminotransferase (ALT) were determined with a colorimetric assay kit (Sigma-Aldrich, Madrid, Spain). In addition the plasma lipid levels for total cholesterol and triglycerides (TG) were measured by enzymatic methods (WAKO, Cape Charles, VA). The concentration of HDLcholesterol (HDL-c) was also determined with the same method used to measure total cholesterol, after precipitating the apolipoprotein-B (apoB) with dextran sulphate/MgCl2 (Sigma-Aldrich, Madrid, Spain) as previously described (Zieske et al., 2005).

Compound	RXRα/PPARγ interaction (RXRα/PPARγ interaction)	expression of MCP-1 in WAT (MCP-1)	number of macrophages (F4/80) in WAT ([1]; 30 mg/Kg/d)	weight of epididymal white adipose tissue (WAT) compared to the control group [1]	mean area of the adipocytes in WAT ([1]; compound 9 10 and 30 mg/Kg/d (dose-dependent), rosiglitazone 10 mg/Kg/d)	expression of CXCL16 induced by TNFα (CXCL16)	triglyceride levels in plasma ([2]; 10 mg/Kg/d) [mg/dL]	triglyceride levels in plasma ([2]; 30 mg/Kg/d) [mg/dL]	blood levels of free fatty acids ([2]; 30 mg/Kg/d, control 0.67)	triglyceride levels in plasma (in words) [2]	decrease of AST level compared to the ob/ob control group ([2]; plasma, 30 mg/Kg/d) [%]	increase of total cholesterol levels with respect to the control group ([2]; plasma, 30 mg/Kg/d) [%]	ALT level ([2]; plasma)	HDL-c with respect to the control group ([2]; plasma, compound 9 10 and 30 mg/Kg/d, WY-14643 30 mg/Kg/d)
C/C(=C\CCC1(C)CCc2cc(O)cc(C)c2O1)CC/C=C(\C)C(=O)O (centres unmarked) [Polycerasoidol, 1, polycerasoidol]	increased RXRα/PPARγ interaction													
CCOC(=O)CCC(C)=CCCC1(C)CCc2cc(OCc3ccc(F)cc3)ccc2O1 (centres unmarked) [Compound 9]		significantly reduced	significantly reduce	did not significantly increase	significant decrease	significant decrease	122	101	0.25	decrease of triglyceride levels in plasma, although not in a significant manner	28	50	reduced	significantly increased
